From patent publication US10653797B2, “Compounds and compositions for targeting brain injuries and methods of use thereof” (SANFORD BURNHAM PREBYS MEDICAL DISCOVERY INSTITUTE, priority 2015, dated 2020)
Residues, ends and D or L forms follow the SMILES beside them. FAM = fluoresceinamine label

Key:
[1] = tested on: penetrating brain injury (PBI); format: in vivo, mouse; settings: for Peptide signal in injured brain 3 hours after injection (retention): mouse, in vivo; for Homing to the injured brain (FAM fluorescence, immunohistochemical staining): i.v. 6 hours after PBI, 30 minutes circulation
Experimental: All animal experiments were conducted under an approved protocol of the Institutional Animal Care and Use Committee of Sanford Burnham Prebys Medical Discovery Institute. Eight to ten week old male BL6 mice were anesthetized with 4% isoflurane (Aerrane; Baxter, UK) in 70% N2O and 30% O2 and positioned in a stereotaxic frame. Using a head restraint, a 5-mm craniotomy was made using a portable drill and a trephine over the right parietotemporal cortex and the bone flap was removed. Penetrating brain injury model was used as described (Kielian et al., J. Immunol. 166:4634-4643 (2001); Kielian, J. Neuroinflammation 1:16 (2004)). Nine needle punctures using a 21 G needle were made 3 mm deep according to a 3×3 grid, spaced 1 mm in width and 1 mm in height. For traumatic brain injury, a Controlled Cortical Impact (CCI) model was used as described (Krajewska et al., PLoS One 6:e24341 (2011)). Mice were subjected to CCI using the benchmark stereotaxic impactor (Impact One™; myNeuroLab.com) with the actuator part mounted directly on the stereotaxic instrument. The impactor (3 mm in diameter) tip accelerated down to the 1.0 mm distance, reaching the preset velocity of 3 m/s, and the applied electromagnetic force remained there for the dwell time of 85 ms, and then retracted automatically. The contact sensor indicated the exact point of contact for reproducible results. In both models, facemask anesthesia (1-2% isoflurane in 70%/30% nitrous oxide/oxygen) was used during the entire procedure and afterwards, the scalp was closed with sutures, anesthesia discontinued, and mice were administered buprenorphine i.p. for pain control. For the first 2 hours after injury, mice were closely monitored in their cages.
CLARITY was performed on freshly-extracted brain tissues as described (Chung et al., Nature 497:332-337 (2013)). Briefly, mice were intravenously injected with FAM-labeled peptides 6 hours after brain injury. After 30-minute circulation, mice were intracardially perfused with PBS and hydrogel solution (Acrylamide (4%), bis (0.05%), VA-044 Initiator (0.25%), paraformaldehyde 4% in PBS). Following perfusion, the tissues were incubated in the hydrogel solution at 4° C. for 2-3 days. At UCSD Neuroscience Core and Light Microscopy Facility the tissues were then degased with nitrogen and incubated at 37° C. for 3-4 hours for polymerization. Samples were then passively cleared in 4% SDS solution for around 4 weeks until the tissue became transparent. Finally, the samples were washed in PBS-T for 2 days and incubated in gradient glycerol solutions: 30, 50 and 80%, about 1 day each and stored in 80% glycerol at room temperature until imaged on a confocal microscope (Leica SP5).
Animals were intravenously injected, six hours after injury, with 50 nmoles of peptide dissolved in PBS, and allowed to circulate for 30 minutes. Mice were perfused intracardially with saline and organs were isolated and imaged using the Illumatool Bright Light System LT-9900 (Lightools Research). Brains and organs were placed in 4% PFA at pH 7.4 overnight, washed with PBS and placed in graded sucrose solutions overnight before OCT embedding. 10 μm thick sections were cut and analyzed by immunofluorescence. For a complete histological analysis, sections were stained with the Movat pentachrome kit (American Mastertech Inc.) following the manufacturer's instructions.
Frozen sections were permeabilized using PBS-Triton (0.2%), blocking was carried out using 5% blocking buffer: 5% BSA, 1% goat serum, 1% donkey serum in PBS-T. Primary antibodies were incubated in diluted (1%) blocking buffer overnight at dilutions 1/100 or 1/200 at 4° C., washed with PBS-T and incubated with secondary antibodies diluted 1/200 or 1/500 in 1% diluted buffer for one hour at room temperature, subsequently washed with PBS-T, counterstained with DAPI 1 μg/mL in PBS for five minutes, washed with PBS, mounted using mounting media (Vector Biolabs), and imaged on a confocal microscope (Zeiss LSM-710). […]

fluid percussion injury = settings: intracerebroventricular administration after fluid percussion injury in rats; cited from earlier work
Tenascin-R = molecular target: T1, Tenascin-R (Mus musculus, UniProt Q8BYI9); assay: Peptide affinity chromatography and mass spectrometry of PBI brain extract; format: binding; settings: mouse PBI brain lysate 6 hrs after injury, eluted with 2 mM free CAQK; mean of three technical replicates
T1 construct: from tissue; host or cells: mouse brain, 6 h after penetrating brain injury (detergent lysate)
T1 sequence (Q8BYI9 32-1358): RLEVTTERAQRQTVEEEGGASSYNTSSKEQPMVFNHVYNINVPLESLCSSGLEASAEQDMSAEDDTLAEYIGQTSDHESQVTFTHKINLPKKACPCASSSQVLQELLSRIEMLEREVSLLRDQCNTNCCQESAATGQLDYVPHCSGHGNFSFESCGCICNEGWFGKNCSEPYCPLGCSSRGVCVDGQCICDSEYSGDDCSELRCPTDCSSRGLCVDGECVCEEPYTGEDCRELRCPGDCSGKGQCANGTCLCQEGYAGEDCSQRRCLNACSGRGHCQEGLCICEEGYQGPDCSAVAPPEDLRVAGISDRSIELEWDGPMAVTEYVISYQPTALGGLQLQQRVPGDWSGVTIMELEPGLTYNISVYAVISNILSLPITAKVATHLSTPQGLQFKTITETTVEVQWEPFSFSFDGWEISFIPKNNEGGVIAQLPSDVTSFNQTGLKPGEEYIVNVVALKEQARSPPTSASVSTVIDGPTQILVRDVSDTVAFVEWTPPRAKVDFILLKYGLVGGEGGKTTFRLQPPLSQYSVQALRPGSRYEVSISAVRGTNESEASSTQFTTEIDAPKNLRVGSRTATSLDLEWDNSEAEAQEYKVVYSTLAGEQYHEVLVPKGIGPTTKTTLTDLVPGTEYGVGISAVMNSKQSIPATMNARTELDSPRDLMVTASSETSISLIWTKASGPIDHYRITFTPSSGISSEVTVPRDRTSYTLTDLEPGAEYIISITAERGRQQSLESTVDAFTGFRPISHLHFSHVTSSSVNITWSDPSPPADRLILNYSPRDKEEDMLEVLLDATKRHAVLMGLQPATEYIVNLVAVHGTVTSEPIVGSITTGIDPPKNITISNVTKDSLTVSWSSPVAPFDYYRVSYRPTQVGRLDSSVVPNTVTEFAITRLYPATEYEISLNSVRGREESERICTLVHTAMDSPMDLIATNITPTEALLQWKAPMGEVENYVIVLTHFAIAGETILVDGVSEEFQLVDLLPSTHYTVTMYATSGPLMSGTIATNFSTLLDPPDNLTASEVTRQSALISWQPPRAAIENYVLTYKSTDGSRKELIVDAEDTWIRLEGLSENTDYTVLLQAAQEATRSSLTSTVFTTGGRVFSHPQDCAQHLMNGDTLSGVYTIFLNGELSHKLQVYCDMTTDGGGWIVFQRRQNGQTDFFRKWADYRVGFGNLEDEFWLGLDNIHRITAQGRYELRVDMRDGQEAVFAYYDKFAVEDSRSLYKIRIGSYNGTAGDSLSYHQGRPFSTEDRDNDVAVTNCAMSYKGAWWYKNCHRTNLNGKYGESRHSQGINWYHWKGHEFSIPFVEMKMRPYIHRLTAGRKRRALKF
Experimental: For identifying CAQK binding proteins, mouse brains with brain injury were collected 6 hrs after injury. Using liquid nitrogen, the brains were crushed and ground into powder using a mortar and pestle. Next, brain tissue was lysed in PBS containing 200 mM n-octyl-beta-D-glucopyranoside and protease inhibitor cocktail (Roche) as described (Teesalu et al., PNAS 16157-16162 (2009)). The cleared lysate was loaded on to CAQK or control peptide (CGGK) coated Sulfolink-agarose beads (Pierce, Waltham, Mass.) and incubated at 4° C. for 3-4 hrs. The column was washed with wash buffer (75 mM octyl-beta-D-glucopyranoside and protease inhibitor cocktail in PBS) followed by washing with 0.5 mM control peptide in wash buffer to remove nonspecifically bound proteins. The bound proteins were eluted with 2 mM free CAQK peptide. The eluted factions were pooled, their protein concentration determined by using bicinchoninic acid (BCA) protein assay (Thermo Fischer) and the samples were digested using the Filter-aided Sample Preparation (FASP) method (Wisniewski et al., Nat Methods 6:359-362 (2009)). Finally, the digested samples were desalted, dried, and subjected to LC-MS/MS analysis at the Proteomics Core facility of the Sanford Burnham Prebys Medical Discovery Institute. All mass spectra were analyzed with MaxQuant software version 1.5.0.25. […] Empty column denotes protein was not detected.

Compound | Peptide signal in injured brain 3 hours after injection (retention) [1] | Homing to the injured brain (FAM fluorescence, immunohistochemical staining) [1] | also measured
C[C@H](NC(=O)[C@@H](N)CS)C(=O)N[C@@H](CCC(N)=O)C(=O)N[C@@H](CCCCN)C(N)=O [CAQK] (H-CAQK-NH2) | visible | – | –
CN1CC[C@H](c2c(O)cc(O)c3c(=O)cc(-c4ccccc4Cl)oc23)[C@H](O)C1 [flavopiridol] | – | – | Reduction of lesion volume (fluid percussion injury): approximately 70%
CGGK ({FAM}-CGGK-NH2) [control peptide of the same length and overall charge as CAQK, immobilized on Sulfolink-agarose beads] | – | – | Log2 LFQ intensity, Tenascin-R (TNR) in column eluate (Tenascin-R): 24.14
FAM-CAQK: chemically synthesized fluoresceinamine (FAM)-labeled CAQK peptide ({FAM}-CAQK-NH2) | – | selective homing to the injured brain | FAM signal in clarified whole brain (CLARITY) ([1]; i.v. 6 hours after injury, 30-minute circulation): restricted to the injured quadrant of the brain; Co-localization and cellular localization of i.v. injected peptide signal in injured brain ([1]; immunofluorescence of PBI brain sections): prominently accumulated at mature oligodendrocytes
FAM-CGGK: FAM-labeled control peptide (CGGK) of the same length and overall charge as CAQK ({FAM}-CGGK-NH2) | completely washed out | minimal fluorescent signal | –
